Reference: US20260101897A1, “PLANT ENVIRONMENTAL STRESS TOLERANCE IMPROVEMENT AGENT AND ENVIRONMENTAL STRESS TOLERANCE IMPROVEMENT METHOD” (priority 2022, published 2026)

Columns and labels:
Type in all cases: in vivo
[1] = tested on: Arabidopsis thaliana (Col-0); test: Evaluation Example 12: tolerance to intense light stress, leaf whitening; settings: for Leaf whitening rate: test compound 0.1 mM (12.5 mL), intense light stress Yes (LED light, 24 hours); for Environmental stress suppressing rate: test compound 0.1 mM, intense light stress Yes
Description: EGT and GB were commercially available products, and pure water was used as a solvent. In a plastic pot having a diameter of 60 mm and a height of 55 mm, 90 mL of culture soil (manufactured by Hanagokoro Co., Ltd.) was placed, and 4 individual Arabidopsis thaliana (Col-0) were seeded per pot. They were located in a growth chamber set at room temperature of 22° C., and the light period was 16 hours and the dark period was 8 hours. The light conditions were set such that the light intensity was 5000 lx in the central part under irradiation with the fluorescent lamp. 12.5 mL of EGT or 12.5 mL of GB was added on the 43rd day after seeding, and one day after that, intense light stress was applied by exposure for 24 hours under irradiation of LED light (manufactured by Esbaybulbs Co., Ltd.) with a light intensity set to 2000 μmol/m 2/sec. Whitened leaves of Arabidopsis thaliana subjected to intense light stress were counted, and the leaf whitening rate was evaluated as an index of physiological disorder. The leaf whitening rate and the environmental stress suppressing rate were calculated according to the following formulas. [formula] [formula]

rapeseed = test: Evaluation Example 9: tolerance to excessive water stress, plant mortality; settings: for Environmental stress suppressing rate: excessive water stress Yes
Description: EGT (Example 11, Comparative Example 31) or GB (Comparative Examples 30 and 32) was prepared so as to have a concentration shown in Table 9 below. EGT and GB were commercially available products, and pure water was used as a solvent.
5 mL of pure water was added to 9-cm petri dishes on which filter paper was placed, and 12 rapeseed seeds were seeded per petri dish. They were located in a growth chamber set at room temperature of 22° C., and the light period was 16 hours and the dark period was 8 hours. The light conditions were set such that the light intensity was 5000 lx in the central part under irradiation with the fluorescent lamp.
On the sixth day after seeding, pure water in the petri dish was removed, 5 mL of EGT or 5 mL of GB was added to the petri dish, and one day after that, 50 mL of pure water was added to the petri dish to apply excessive water stress.
5 The surviving plants were counted 19 days after the excessive water stress was applied, and the mortality rate of the plants was evaluated as an index of physiological disorder. The mortality rate and the environmental stress suppressing rate were calculated according to the following formulas.

[2] = tested on: Arabidopsis thaliana (Col-0); test: Evaluation Example 1: tolerance to salt stress, plant mortality
Description: L-(+)-ergothioneine (Examples 1 and 2 and Comparative Example 3) and glycine betaine (Comparative Examples 1 and 2 and Comparative Example 4) were prepared so as to have the concentrations shown in Table 1 below. EGT and GB were commercially available products, and pure water was used as a solvent.
Three individuals of Arabidopsis thaliana (Col-0) were seeded per well in a 24-well cell culture plate. Mixed salts for Murashige and Skoog medium (Fujifilm Wako Pure Chemical Industries, Ltd.) to which 1 wt. % of sucrose and 0.1 wt. % of agar-agar powder were added was used as a liquid medium, and the liquid medium was placed in a 2 mL per well.
They were located in a growth chamber set at room temperature of 22° C., and the light period was 16 hours and the dark period was 8 hours. The light conditions were set such that the light intensity was 5000 lx in the central part under irradiation with the fluorescent lamp. On the fourth day after seeding, EGT or GB was added so as to give a predetermined concentration, and 24 hours later, an aqueous sodium chloride solution was added so as to give a final 100 mM concentration, thereby giving a salt stress.
The number of surviving plants was counted on the 10th day after seeding, and the plant mortality rate was evaluated as an index of physiological disorder. The mortality rate and the environmental stress suppressing rate were calculated according to the following formulas.

turf (Manila grass) = test: Evaluation Example 11: tolerance to ultraviolet stress, leaf mortality; settings: for Environmental stress suppressing rate: ultraviolet stress Yes
Description: EGT (Examples 14 and 15, Comparative Examples 45 and 46) or GB (Comparative Examples 43, 44, 47 and 48) was prepared so as to have a concentration shown in Table 11 below. EGT and GB were commercially available products, and pure water was used as a solvent.
Turf (Manila grass) cut into a 50 mm square was placed on a petri dish and managed in a greenhouse at room temperature of 25° C. The plant height was trimmed to the length of 10 mm. 10 mL of EGT or 10 ml of GB was added per petri dish, and one day after that, ultraviolet stress was applied by exposure for one hour under irradiation with an ultraviolet lamp (GL-15, manufactured by Toshiba Corporation) with the intensity of ultraviolet radiation of a wavelength of 254 nm set to 525 μW/cm^−2.
Dead leaves were counted 7 days after the ultraviolet stress was applied, and the leaf mortality rate was evaluated as an index of physiological disorder. The leaf mortality rate and the environmental stress suppressing rate were calculated according to the following formulas.

soybean plant = test: Evaluation Example 6: tolerance to drying stress, leaf mortality; settings: for Leaf mortality rate / Environmental stress suppressing rate: drying stress Yes; for Leaf mortality rate: 7 days after stoppage of water
Description: EGT and GB were commercially available products, and pure water was used as a solvent. In a 60 mm square plastic pot having a height of 66 mm, 150 ml of granular soil (Kumiai horticultural soil) was placed, and one individual soybean plant was seeded per pot. They were managed in a greenhouse set at room temperature of 25° C. EGT in an amount of 50 mL or GB in an amount of 50 mL was added on the 23rd day after seeding, and drying stress was applied by stopping water supply for 7 days after the addition of EGT or GB. Dead leaves were counted 7 days after the stoppage of water, and the leaf mortality rate was evaluated as an index of physiological disorder. The leaf mortality rate and the environmental stress suppressing rate were calculated according to the following formulas. [formula] [formula]

[3] = test compound 0.1 mM (5 mL), excessive water stress Yes (50 mL pure water per petri dish), 19 days after stress
[4] = test compound 0.1 mM, excessive water stress No
[5] = test compound 0.1 mM, salt stress Yes (100 mM sodium chloride)
[6] = test compound 0.1 mM, salt stress Yes (100 mM sodium chloride), 10th day after seeding
[7] = test compound 1 mM, salt stress No
[8] = test compound 1 mM, salt stress Yes (100 mM sodium chloride)
[9] = test compound 1 mM, salt stress Yes (100 mM sodium chloride), 10th day after seeding
[10] = test compound 0.1 mM (10 mL), ultraviolet stress Yes (254 nm, one hour), 7 days after stress
[11] = test compound 0.1 mM, ultraviolet stress No
[12] = test compound 1 mM (10 mL), ultraviolet stress Yes (254 nm, one hour), 7 days after stress
[13] = test compound 1 mM, ultraviolet stress No

## C[N+](C)(C)[C@@H](Cc1c[nH]c(=S)[nH]1)C(=O)[O-] [EGT, L-(+)-ergothioneine]
[1]
  Leaf whitening rate: 8%
  Environmental stress suppressing rate: 78%
rapeseed; [3]
  Mortality rate: 25%
rapeseed; [4]
  Mortality rate: 0%
rapeseed; test compound 0.1 mM
  Environmental stress suppressing rate: 58%
[2]; [5]
  Environmental stress suppressing rate: 48%
[2]; [6]
  Mortality rate: 39%
[2]; [7]
  Mortality rate: 0%
[2]; [8]
  Environmental stress suppressing rate: 81%
[2]; [9]
  Mortality rate: 14%
Turf (Manila grass); [10]
  Leaf mortality rate: 13%
Turf (Manila grass); [11]
  Leaf mortality rate: 2%
Turf (Manila grass); test compound 0.1 mM
  Environmental stress suppressing rate: 79%
Turf (Manila grass); [12]
  Leaf mortality rate: 6%
Turf (Manila grass); [13]
  Leaf mortality rate: 0%
Turf (Manila grass); test compound 1 mM
  Environmental stress suppressing rate: 90%
Soybean plant; test compound 0.1 mM (50 mL)
  Leaf mortality rate: 55%
Soybean plant; test compound 0.1 mM
  Environmental stress suppressing rate: 11%
Soybean plant; test compound 1 mM (50 mL)
  Leaf mortality rate: 38%
Soybean plant; test compound 1 mM
  Environmental stress suppressing rate: 39%

## C[N+](C)(C)CC(=O)[O-] [GB, glycine betaine, reference compound]
[1]; 0.1 mM, intense light stress
  leaf whitening due to intense light stress, result in words: not suppressed
[1]
  Leaf whitening rate: 40%
  Environmental stress suppressing rate: 0%
rapeseed; 0.1 mM, excessive water stress
  mortality rate due to excessive water stress, result in words: not suppressed
rapeseed; [3]
  Mortality rate: 60%
rapeseed; [4]
  Mortality rate: 0%
rapeseed; test compound 0.1 mM
  Environmental stress suppressing rate: 0%
[2]; GB treatment 1 mM and 0.1 mM, salt stress
  death due to salt stress, result in words: not suppressed
[2]; [5]
  Environmental stress suppressing rate: 0%
[2]; [6]
  Mortality rate: 79%
[2]; [7]
  Mortality rate: 0%
[2]; [8]
  Environmental stress suppressing rate: 0%
[2]; [9]
  Mortality rate: 75%
Turf (Manila grass); GB 1 mM and 0.1 mM, ultraviolet stress
  mortality rate due to ultraviolet stress, result in words: hardly suppressed
Turf (Manila grass); [10]
  Leaf mortality rate: 54%
Turf (Manila grass); [11]
  Leaf mortality rate: 2%
Turf (Manila grass); test compound 0.1 mM
  Environmental stress suppressing rate: 14%
Turf (Manila grass); [12]
  Leaf mortality rate: 59%
Turf (Manila grass); [13]
  Leaf mortality rate: 0%
Turf (Manila grass); test compound 1 mM
  Environmental stress suppressing rate: 6%
Soybean plant; GB 1 mM and 0.1 mM, drying stress
  mortality rate due to drying stress, result in words: not suppressed
Soybean plant; test compound 0.1 mM (50 mL)
  Leaf mortality rate: 71%
Soybean plant; test compound 0.1 mM
  Environmental stress suppressing rate: 0%
Soybean plant; test compound 1 mM (50 mL)
  Leaf mortality rate: 62%
Soybean plant; test compound 1 mM
  Environmental stress suppressing rate: 0%
